The numbers were not newly measured in patent US6756057B2, “Amoxicillin and potassium clavulanate dosage form” (Beecham Pharmaceuticals (pte) Limited, priority 2000, dated 2004), which cites them from elsewhere.

The conditions of the series: in vivo.

Turning to `CC1(C)S[C@@H]2[C@H](NC(=O)[C@H](N)c3ccc(O)cc3)C(=O)N2[C@H]1C(=O)O` [amoxicillin], the elimination half-life result is “about 1.3 hours”.
